# Assay results as given in PubChem BioAssay (NCI).
#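 Protocol summary: plate cells (96-well), add compound at 5 concentrations, incubate 48 h, interpolate endpoints linearly. GI50 is the concentration that inhibits growth by half. Definition used: TGI = concentration required for complete inhibition of growth.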
# How the values were obtained:
# Test in all cases: inhibition of tumour cell growth, NCI panel, 48 h
# [1] = test system: HCC-2998 colon
# [2] = test system: HOP-62 NSCLC
# [3] = test system: KM12 colon
# [4] = test system: NCI-H460 lung
# [5] = test system: SF-295 CNS
# [6] = test system: SN12C renal
# [7] = test system: U251 CNS
# [8] = test system: UACC-257 melanoma
# [9] = test system: COLO 205 colon
SMILES,TGI [1] [µM],TGI [2] [µM],TGI [3] [µM],TGI [4] [µM],TGI [5] [µM],TGI [6] [µM],TGI [7] [µM],TGI [8] [µM],TGI [9] [µM],GI50 [9] [µM],GI50 [1] [µM],GI50 [2] [µM],GI50 [3] [µM],GI50 [4] [µM],GI50 [5] [µM],GI50 [6] [µM],GI50 [7] [µM],GI50 [8] [µM]
COc1ccc(C2=NN(c3ccccc3)C[N+](c3ccc(OC)cc3)=N2)cc1,> 100,> 100,54.7,> 100,> 100,> 100,49.8,> 100,–,–,–,–,–,–,–,–,–,–
CC(=O)C1C(=O)C(=O)N(c2ccccc2C(C)C)C1=O (configuration not stated),> 100,> 100,> 100,> 100,> 100,> 100,> 100,> 100,> 100,–,–,–,–,–,–,–,–,–
Cc1cccc(C(C)C)c1NC(=O)CC1C(=O)Nc2ccccc2S1(=O)=O (configuration not stated),> 56.2,> 100,73.9,35.2,67.1,> 59.4,> 51.4,> 70.8,> 100,–,–,–,–,–,–,–,–,–
CN1c2ccccc2N(C)C23N(C)c4ccccc4N(C)C12N(C)c1ccccc1N3C (configuration not stated),> 100,> 100,> 100,> 100,> 100,> 100,> 100,> 100,> 100,–,–,–,–,–,–,–,–,–
Cc1ccc(Nc2nc(C)c(C(/C=C/c3ccc(/C=C/C(=N/NC(=O)C[n+]4ccccc4)c4sc(Nc5ccc(C)cc5[N+](=O)[O-])nc4C)cc3)=N\NC(=O)C[n+]3ccccc3)s2)c([N+](=O)[O-])c1,> 100,> 100,> 100,> 100,> 100,> 100,> 100,> 100,> 100,–,–,–,–,–,–,–,–,–
COc1ccc(/C=N/N=C(\N)NO)c(OC)c1,43.7,84.3,> 100,–,70.7,> 100,> 100,> 100,> 100,–,–,–,–,–,–,–,–,–
[N-]=[N+]=NC(CI)c1cn([C@H]2C[C@H](O)[C@@H](CO)O2)c(=O)[nH]c1=O (some centres not stated),> 100,> 100,> 100,> 100,> 100,> 100,> 100,–,> 100,–,–,–,–,–,–,–,–,–
Cc1ccccc1NC(=O)C(=O)CC(=O)c1c(C)n([O-])c2ccccc2[n+]1=O,> 100,> 100,> 100,> 100,> 100,> 100,> 100,> 100,> 100,–,–,–,–,–,–,–,–,–
COc1cc(C2C(Cl)C(=O)N2NC(=O)c2ccc(N)cc2)ccc1O (configuration not stated),38,> 100,> 100,> 100,> 100,> 100,32,> 100,36.9,–,–,–,–,–,–,–,–,–
CCOC(=O)NC(=O)c1cn(CCN2CCN(c3ncnc4nc[nH]c34)CC2)c(=O)[nH]c1=O,> 100,> 100,> 100,> 100,> 100,> 100,> 100,> 100,> 100,–,–,–,–,–,–,–,–,–
CCOC(=O)C(=Cc1cccnc1C)C(=O)OCC,–,40.7,12.9,35.8,24.2,16.2,18.6,20.7,18.4,–,–,–,–,–,–,–,–,–
C[Si](C)(C)c1ccc(-c2sc(-c3ccc([Si](C)(C)C)s3)c3c2C[Si]2(C3)Cc3c(-c4ccc([Si](C)(C)C)s4)sc(-c4ccc([Si](C)(C)C)s4)c3C2)s1,> 100,> 100,> 100,> 100,> 100,> 100,> 100,> 100,> 100,–,–,–,–,–,–,–,–,–
CCc1cccc(C)c1NC(=O)C(=O)Cc1nc2ccccc2s1,> 100,–,> 100,> 100,> 100,> 100,> 100,> 100,> 100,–,–,–,–,–,–,–,–,–
CN(/N=C/c1cccc2cccnc12)c1ccccc1,> 100,> 100,> 100,> 100,> 100,> 100,> 100,> 100,> 100,–,–,–,–,–,–,–,–,–
COc1ccc2ccccc2c1C1OC(=O)c2ccccc21 (configuration not stated),> 100,> 100,> 100,–,> 100,> 100,> 100,> 100,> 100,–,–,–,–,–,–,–,–,–
C1=C2/CC[C@H](Sc3ccccc3)[C@H]2C2(CCCCC/1)OCCO2,41.3,> 100,> 100,> 100,> 100,> 100,63.1,55,38.2,–,–,–,–,–,–,–,–,–
O=S1(=O)OCCOS(=O)(=O)C1Cc1ccccc1,45.4,> 100,> 100,> 100,> 100,> 100,> 100,> 100,34.8,–,–,–,–,–,–,–,–,–
COc1ccc(C(C#N)Cc2cc(OC)c(OC)c(OC)c2)cc1 (configuration not stated),–,> 100,> 100,> 100,54.4,> 100,> 100,> 100,49.3,–,–,–,–,–,–,–,–,–
Cc1ccc(C)c(NC(=O)CC/C(=N\NC(=O)c2c(O)ccc3ccccc23)C(C)C(=O)c2ccc(O)cc2)c1 (configuration not stated),> 100,> 100,> 100,> 100,> 100,> 100,> 100,87.1,51.3,–,–,–,–,–,–,–,–,–
COC(=O)C1=C(c2cc(OC)c(OC)c(OC)c2)OC(c2ccc(OC)c(OC)c2)C1 (configuration not stated),> 100,> 100,> 100,> 100,> 100,> 100,> 100,> 100,42.6,–,–,–,–,–,–,–,–,–
O=C(NN1C(=O)CSC12CCCC2)c1[nH]c2ccc(Br)cc2c1-c1ccccc1,> 100,> 100,> 100,> 100,69.7,77,> 100,> 100,> 100,53.4,44.6,62.5,28.5,46.9,24.2,25.9,38.2,> 100
C[C@]12CCC3[C@@H](CC[C@@H]4c5nonc5CC[C@]34C)C1C/C(=N/O)C2=O (some centres not stated),–,> 100,> 100,> 100,> 100,> 100,> 100,> 100,> 100,–,–,–,–,–,–,–,–,–
CN(C(=O)c1ccco1)C(=S)N1CCN(c2ccccc2)CC1,–,> 100,> 100,> 100,> 100,> 100,> 100,> 100,> 100,–,–,–,–,–,–,–,–,–
